Assay results: article PMC8222254, “Self-assembly of an anion receptor with metal-dependent kinase inhibition and potent in vitro anti-cancer properties” (Nature Communications, 2021)

Experiments:
[1] = biological target: T1, AMPK (Homo sapiens, UniProt Q13131); assay: ADP-Glo Kinase Assay in presence of varying AMP; type: biochemical
T1 construct: purchased Promega
Method: ATP competition kinase assays were performed by the MRC Protein Phosphorylation and Ubiquitination Unit International Centre for Kinase Profiling (University of Dundee). Inhibition of recombinant human AMPK (α1β2γ1) by 10μM [L2Cu3]^6+ or [L2Zn3]^6+ was evaluated at five different ATP concentrations (0.5, 2, 20, 200 and 500 µM ATP). Substrate competition assays were performed using the ADP-Glo Kinase Assay (Promega) and recombinant human AMPK (α1β2γ1) (Promega) with concentrations of the provided AMPK substrate (SAMStide substrate, Promega) ranging from 1 to 15 mg/ml. Following pre-incubation of substrate with kinase for 5 min 10 µM [L2Cu3]^6+, [L2Zn3]^6+ or solvent control and 50 µM ATP was added to start the kinase reaction. For determination of the effects of AMP on AMPK inhibition by [L2Zn3]^6+, the ADP-Glo Kinase Assay (Promega) was performed in presence of varying of AMP (0, 80, 160 μM).

[2] = 31P NMR study of hydrolysis of phosphate esters and phosphorylated amino acids
Method: For ^1H NMR studies, reaction of [L2Zn3]^6+ with either Na2O3POPh and Bu4NH2PO4 was carried out in 10% D2O in CD3CN. The NMR solutions were prepared by dissolving the ligand L and Zn(C2H3O2)2 (in a ratio of 1:1.5) in CD3CN (600 µL). The relevant anion (0.5 equivalents w.r.t ligand) was dissolved in D2O (60 µL) and these solutions were then combined. Heating of the sample was carried out @ 80 °C in a water bath for the specified amount of time. For the ^31P NMR studies solutions were prepared by dissolving the ligand L and Zn(C2H3O2)2 (in a ratio of 1:1.5) in d6-DMSO (200 µL). The anion (0.5 equivalents w.r.t ligand) was dissolved in HEPES (600 µL, 60 mmol @ pH 7.4) and these solutions were then combined. Where required heating of the sample was carried out by incubating the sample @ 37 °C and/or a further 2 h @ 80 °C in a water bath.

[3] = tested on: HCT116; assay: Metabolic flux analysis (Cell Energy Phenotype Assay, OCR/ECAR); type: cell-based, human; parameters: Mean Baseline EACR / Baseline EACR / Mean Stressed OCR / Stressed OCR / Mean Stressed EACR / Stressed EACR / Mean Baseline OCR / Baseline OCR: unit not given here; settings: for Baseline EACR / Baseline OCR / Stressed EACR / Stressed OCR / Mean Baseline EACR / Mean Baseline OCR / Mean Stressed EACR / Mean Stressed OCR: HCT116 cells
Method: ARPE-19 and HCT116 cells were seeded in 8-well XFp plates (Agilent) 48 h prior to metabolic flux analyses using the Agilent XFp extracellular flux analyser. Cell seeding densities were 2500 cells/well for ARPE-19 cells and 7500 cells/well for HCT116 cells in order to achieve equivalent cell confluency (~70% confluency and in log phase growth) at the time of analyses. Cells were treated with 25 μM of [L2Zn3]^6+ or solvent control (0.2% DMSO) for 1 h or 20 h before metabolic flux analyses using the Cell Energy Phenotype Assay (Agilent) in accordance with the manufacturer’s instructions. For determination of maximal respiratory and glycolytic rates (metabolic reserve) following real-time quantification of basal respiratory and glycolytic rates, a ‘metabolic stress mix’ of 1 µM oligomycin and FCCP (0.5 µM for ARPE-19, 0.25 µM for HCT116) was injected into the media.

[4] = tested on: ARPE-19; assay: TSQ cellular localisation / uptake study; type: cell-based, human; settings: ARPE-19, 25μM, 1 hour
Method: (§1) 48 h following cell seeding in Lumox chamber slides (8-well, Sarstedt), cells (ARPE-19 and HCT116 p53^+/+ were treated for 1 h at 37 °C with 25 μM of [L2Zn3]^6+ or DMSO solvent control before removal and washout three times using complete phenol-red free media. 25 μM TSQ (Enzo Life Sciences) was then added for 30 min for detection of cellular zinc before its washout (three washes) and analyses by confocal microscopy (Zeiss LSM880).

[5] = tested on: HCT116 p53+/+; assay: TSQ cellular localisation / uptake study; type: cell-based, human; settings: 25μM, 1 hour
Method: as §1

[6] = 1h exposure, mean of 3 runs (Fig. 9c)
[7] = 20h exposure, mean of 3 runs (Fig. 9d)

T1 sequence (Q13131 whole entry): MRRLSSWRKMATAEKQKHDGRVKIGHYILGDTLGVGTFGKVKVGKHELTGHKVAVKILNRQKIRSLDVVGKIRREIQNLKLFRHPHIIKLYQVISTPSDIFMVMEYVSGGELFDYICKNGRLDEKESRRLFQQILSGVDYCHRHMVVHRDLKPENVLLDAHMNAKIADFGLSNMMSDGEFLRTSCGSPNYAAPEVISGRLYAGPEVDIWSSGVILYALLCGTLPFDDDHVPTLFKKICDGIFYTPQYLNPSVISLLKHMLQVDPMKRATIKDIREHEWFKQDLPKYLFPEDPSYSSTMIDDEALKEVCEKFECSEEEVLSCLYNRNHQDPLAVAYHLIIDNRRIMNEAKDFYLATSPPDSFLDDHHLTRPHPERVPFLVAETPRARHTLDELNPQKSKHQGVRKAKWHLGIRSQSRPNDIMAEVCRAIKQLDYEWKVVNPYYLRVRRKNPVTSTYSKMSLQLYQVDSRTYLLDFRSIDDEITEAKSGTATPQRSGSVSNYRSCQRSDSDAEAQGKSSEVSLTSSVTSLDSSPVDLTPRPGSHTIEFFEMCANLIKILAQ
T1 sequence (O43741 whole entry partner): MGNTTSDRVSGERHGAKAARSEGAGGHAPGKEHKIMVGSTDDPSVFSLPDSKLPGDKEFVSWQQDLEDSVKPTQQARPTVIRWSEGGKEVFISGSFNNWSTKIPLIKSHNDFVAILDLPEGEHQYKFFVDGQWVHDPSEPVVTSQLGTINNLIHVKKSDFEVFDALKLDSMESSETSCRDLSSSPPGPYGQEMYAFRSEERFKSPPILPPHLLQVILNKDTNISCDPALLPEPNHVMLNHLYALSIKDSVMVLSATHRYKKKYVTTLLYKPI
T1 sequence (P54619 whole entry partner): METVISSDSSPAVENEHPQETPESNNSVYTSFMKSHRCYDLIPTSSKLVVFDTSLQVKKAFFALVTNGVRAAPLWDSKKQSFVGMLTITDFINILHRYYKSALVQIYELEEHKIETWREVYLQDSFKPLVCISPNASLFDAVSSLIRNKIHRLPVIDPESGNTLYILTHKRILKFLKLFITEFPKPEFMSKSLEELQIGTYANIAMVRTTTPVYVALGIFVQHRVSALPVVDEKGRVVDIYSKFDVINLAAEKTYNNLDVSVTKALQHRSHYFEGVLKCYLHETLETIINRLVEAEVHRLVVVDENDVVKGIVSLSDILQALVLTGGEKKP

CC(=O)[O-].CC(=O)[O-].CC(=O)[O-].CC(=O)[O-].CC(=O)[O-].CC(=O)[O-].[Zn+2].[Zn+2].[Zn+2].c1ccc(-c2csc(NCCN(CCNc3nc(-c4ccccn4)cs3)CCNc3nc(-c4ccccn4)cs3)n2)nc1.c1ccc(-c2csc(NCCN(CCNc3nc(-c4ccccn4)cs3)CCNc3nc(-c4ccccn4)cs3)n2)nc1 [[L2Zn3]6+]
AMPK activity remaining ([1]; in the absence of AMP): ~ 30%
AMPK activity remaining ([1]; in the presence of AMP (80 or 160 microM)): 20-30%
dephosphorylation of serine-OPO3 2- (31P NMR) ([2]; 37 °C): completion after 48 h
dephosphorylation of tyrosine-OPO3 2- (31P NMR) ([2]; 37 °C): completion after 48 h
dephosphorylation of threonine-OPO3 2- (31P NMR) ([2]; 37 °C, compared with serine and tyrosine phosphate): much slower
hydrolysis of phenyl phosphate dianion (31P NMR) ([2]; after 44 h at 37 °C, 25% DMSO / HEPES): virtually no signal
hydrolysis of 4-nitrophenyl phosphate (31P NMR) ([2]; following mixing): almost immediate hydrolysis
glycolysis (ECAR) ([3]; HCT116, 25 μM, 1 h): modest selective decrease
mitochondrial respiration and glycolysis ([3]; HCT116, 25 μM, 20 h): substantially impaired
Baseline EACR ([3]; 1h exposure, Run 1 (Fig. 9c)): 36.12
Baseline OCR ([3]; 1h exposure, Run 1 (Fig. 9c)): 98.34
Stressed EACR ([3]; 1h exposure, Run 1 (Fig. 9c)): 50.32
Stressed OCR ([3]; 1h exposure, Run 1 (Fig. 9c)): 147.22
Baseline EACR ([3]; 1h exposure, Run 2 (Fig. 9c)): 27.29
Baseline OCR ([3]; 1h exposure, Run 2 (Fig. 9c)): 76.52
Stressed EACR ([3]; 1h exposure, Run 2 (Fig. 9c)): 37.11
Stressed OCR ([3]; 1h exposure, Run 2 (Fig. 9c)): 109.94
Baseline EACR ([3]; 1h exposure, Run 3 (Fig. 9c)): 34.53
Baseline OCR ([3]; 1h exposure, Run 3 (Fig. 9c)): 90.56
Stressed EACR ([3]; 1h exposure, Run 3 (Fig. 9c)): 47.29
Stressed OCR ([3]; 1h exposure, Run 3 (Fig. 9c)): 132.49
Mean Baseline EACR [3, 6]: 32.65
Mean Baseline OCR [3, 6]: 88.47
Mean Stressed EACR [3, 6]: 44.91
Mean Stressed OCR [3, 6]: 129.88
Baseline EACR ([3]; 20h exposure, Run 1 (Fig. 9d)): 24.12
Baseline OCR ([3]; 20h exposure, Run 1 (Fig. 9d)): 21.60
Stressed EACR ([3]; 20h exposure, Run 1 (Fig. 9d)): 29.60
Stressed OCR ([3]; 20h exposure, Run 1 (Fig. 9d)): 20.79
Baseline EACR ([3]; 20h exposure, Run 2 (Fig. 9d)): 26.59
Baseline OCR ([3]; 20h exposure, Run 2 (Fig. 9d)): 20.38
Stressed EACR ([3]; 20h exposure, Run 2 (Fig. 9d)): 33.07
Stressed OCR ([3]; 20h exposure, Run 2 (Fig. 9d)): 21.88
Baseline EACR ([3]; 20h exposure, Run 3 (Fig. 9d)): 25.54
Baseline OCR ([3]; 20h exposure, Run 3 (Fig. 9d)): 19.42
Stressed EACR ([3]; 20h exposure, Run 3 (Fig. 9d)): 31.03
Stressed OCR ([3]; 20h exposure, Run 3 (Fig. 9d)): 19.19
Mean Baseline EACR [3, 7]: 25.41
Mean Baseline OCR [3, 7]: 20.47
Mean Stressed EACR [3, 7]: 31.23
Mean Stressed OCR [3, 7]: 20.62
cellular uptake (TSQ fluorescent signal) [4]: increase in TSQ fluorescent signal
cellular uptake (TSQ fluorescent signal) [5]: increase in TSQ fluorescent signal
